Tests used:
PC-3 = assay: panel of 60 human tumor cell lines, growth inhibition (Prostate Cancer); conditions: Homo sapiens; for GI50: PC-3; for CC50: PC-3, read-out: LC50; for IC (TGI): PC-3, read-out: TGI
DU-145 = assay: as above; conditions: Homo sapiens; for GI50: DU-145; for CC50: DU-145, read-out: LC50; for IC (TGI): DU-145, read-out: TGI
SN12C = assay: panel of 60 human tumor cell lines, growth inhibition (Renal Cancer); conditions: Homo sapiens; for CC50: read-out: LC50; for IC (TGI): read-out: TGI
SK-MEL-2 = assay: panel of 60 human tumor cell lines, growth inhibition (Melanoma); conditions: Homo sapiens; for GI50: SK-MEL-2; for CC50: SK-MEL-2, read-out: LC50; for IC (TGI): SK-MEL-2, read-out: TGI
NCI-H322M = assay: panel of 60 human tumor cell lines, growth inhibition (Non-Small Cell Lung Cancer); conditions: Homo sapiens; for CC50: read-out: LC50; for IC (TGI): read-out: TGI
NCI/ADR-RES = assay: panel of 60 human tumor cell lines, growth inhibition (Ovarian Cancer); conditions: Homo sapiens; for CC50: read-out: LC50; for IC (TGI): read-out: TGI
MDA-MB-435 = assay: panel of 60 human tumor cell lines, growth inhibition (Melanoma); conditions: Homo sapiens; for GI50: MDA-MB-435; for CC50: MDA-MB-435, read-out: LC50; for IC (TGI): MDA-MB-435, read-out: TGI
HOP-62 = assay: panel of 60 human tumor cell lines, growth inhibition (Non-Small Cell Lung Cancer); conditions: Homo sapiens; for GI50: HOP-62; for CC50: HOP-62, read-out: LC50; for IC (TGI): HOP-62, read-out: TGI
786-0 = assay: panel of 60 human tumor cell lines, growth inhibition (Renal Cancer); conditions: Homo sapiens; for GI50: 786-0; for CC50: 786-0, read-out: LC50; for IC (TGI): 786-0, read-out: TGI
OVCAR-5 = assay: panel of 60 human tumor cell lines, growth inhibition (Ovarian Cancer); conditions: Homo sapiens; for GI50: OVCAR-5; for CC50: OVCAR-5, read-out: LC50; for IC (TGI): OVCAR-5, read-out: TGI
SF-539 = assay: panel of 60 human tumor cell lines, growth inhibition (CNS Cancer); conditions: Homo sapiens; for GI50: SF-539; for CC50: SF-539, read-out: LC50; for IC (TGI): SF-539, read-out: TGI
HT29 = assay: panel of 60 human tumor cell lines, growth inhibition (Colon Cancer); conditions: for Percent Growth: HT29; for GI50 / CC50 / IC (TGI): Homo sapiens; for GI50: HT-29; for CC50: HT-29, read-out: LC50; for IC (TGI): HT-29, read-out: TGI
U251 = assay: panel of 60 human tumor cell lines, growth inhibition (CNS Cancer); conditions: Homo sapiens; for GI50: U-251; for CC50: U-251, read-out: LC50; for IC (TGI): U-251, read-out: TGI
NCI-H460 = assay: panel of 60 human tumor cell lines, growth inhibition (Non-Small Cell Lung Cancer); conditions: Homo sapiens; for GI50: NCI-H460; for CC50: NCI-H460, read-out: LC50; for IC (TGI): NCI-H460, read-out: TGI
A498 = assay: panel of 60 human tumor cell lines, growth inhibition (Renal Cancer); conditions: Homo sapiens; for GI50: A498; for CC50: A498, read-out: LC50; for IC (TGI): A498, read-out: TGI
MDA-MB-231/ATCC = assay: panel of 60 human tumor cell lines, growth inhibition (Breast Cancer); conditions: Homo sapiens; for GI50: MDA-MB-231; for CC50: MDA-MB-231, read-out: LC50; for IC (TGI): MDA-MB-231, read-out: TGI
HCT-116 = assay: panel of 60 human tumor cell lines, growth inhibition (Colon Cancer); conditions: Homo sapiens; for GI50: HCT-116, HCT-116, NCI five dose; for CC50: HCT-116, read-out: LC50; for IC (TGI): HCT-116, read-out: TGI

C=C1C(=O)O[C@H]2[C@H]1CC/C(COC(=O)NCCCCCCO)=C\CC[C@@]1(C)O[C@@H]21 [JVM 2-31]
GI50 (PC-3): 13.3 µM
CC50 (PC-3): 64.1 µM
IC (TGI) (PC-3): 29.2 µM
GI50 (DU-145): 3.68 µM
CC50 (DU-145): 39.4 µM
IC (TGI) (DU-145): 14.3 µM
GI50 (SN12C): 10.4 µM
CC50 (SN12C): 69.7 µM
IC (TGI) (SN12C): 27 µM
GI50 (SK-MEL-2): 14.4 µM
CC50 (SK-MEL-2): 70.4 µM
IC (TGI) (SK-MEL-2): 31.9 µM
GI50 (NCI-H322M): 32.2 µM
CC50 (NCI-H322M): > 100 µM
IC (TGI) (NCI-H322M): 89 µM
GI50 (NCI/ADR-RES): 28.1 µM
CC50 (NCI/ADR-RES): > 100 µM
IC (TGI) (NCI/ADR-RES): > 100 µM
GI50 (MDA-MB-435): 4.45 µM
CC50 (MDA-MB-435): 70.9 µM
IC (TGI) (MDA-MB-435): 20.2 µM
GI50 (HOP-62): 19.6 µM
CC50 (HOP-62): 86.7 µM
IC (TGI) (HOP-62): 41.2 µM
GI50 (786-0): 2990 nM
CC50 (786-0): 43.7 µM
IC (TGI) (786-0): 13.1 µM
GI50 (OVCAR-5): 13.4 µM
CC50 (OVCAR-5): 64.1 µM
IC (TGI) (OVCAR-5): 29.3 µM
GI50 (SF-539): 2420 nM
CC50 (SF-539): 34.8 µM
IC (TGI) (SF-539): 8.33 µM
Percent Growth (HT29; Log10 Concentration −4.0): −61%
Percent Growth (HT29; Log10 Concentration −5.0): 93%
Percent Growth (HT29; Log10 Concentration −6.0): 102%
Percent Growth (HT29; Log10 Concentration −7.0): 104%
Percent Growth (HT29; Log10 Concentration −8.0): 101%
GI50 (HT29): 19 µM
CC50 (HT29): 84.8 µM
IC (TGI) (HT29): 40.1 µM
GI50 (U251): 17.4 µM
CC50 (U251): 63.7 µM
IC (TGI) (U251): 33.3 µM
GI50 (NCI-H460): 20.3 µM
CC50 (NCI-H460): > 100 µM
IC (TGI) (NCI-H460): 51.2 µM
GI50 (A498): 12.5 µM
CC50 (A498): 53.4 µM
IC (TGI) (A498): 25.9 µM
GI50 (MDA-MB-231/ATCC): 8.01 µM
CC50 (MDA-MB-231/ATCC): 57.9 µM
IC (TGI) (MDA-MB-231/ATCC): 20.3 µM
GI50 (HCT-116): 2780 nM
CC50 (HCT-116): 34 µM
IC (TGI) (HCT-116): 11 µM

C=C1C(=O)O[C@H]2[C@H]1CC/C(COC(=O)OCCN(C)C)=C\CC[C@@]1(C)O[C@@H]21 [JVM 2-35]
GI50 (PC-3): 14 µM
CC50 (PC-3): 64.5 µM
IC (TGI) (PC-3): 30 µM
GI50 (DU-145): 3.59 µM
CC50 (DU-145): 37.7 µM
IC (TGI) (DU-145): 13.2 µM
GI50 (SN12C): 13.2 µM
CC50 (SN12C): > 100 µM
IC (TGI) (SN12C): 39.7 µM
GI50 (SK-MEL-2): 15.2 µM
CC50 (SK-MEL-2): 86.6 µM
IC (TGI) (SK-MEL-2): 36.3 µM
GI50 (NCI-H322M): 28.7 µM
CC50 (NCI-H322M): > 100 µM
IC (TGI) (NCI-H322M): > 100 µM
GI50 (NCI/ADR-RES): 23.7 µM
CC50 (NCI/ADR-RES): > 100 µM
IC (TGI) (NCI/ADR-RES): 84.6 µM
GI50 (MDA-MB-435): 4.03 µM
CC50 (MDA-MB-435): 45.7 µM
IC (TGI) (MDA-MB-435): 16.3 µM
GI50 (HOP-62): 22.9 µM
CC50 (HOP-62): > 100 µM
IC (TGI) (HOP-62): 82.1 µM
GI50 (786-0): 2750 nM
CC50 (786-0): 37.3 µM
IC (TGI) (786-0): 12.1 µM
GI50 (OVCAR-5): 13.1 µM
CC50 (OVCAR-5): 57 µM
IC (TGI) (OVCAR-5): 27.3 µM
GI50 (SF-539): 3860 nM
CC50 (SF-539): 41.3 µM
IC (TGI) (SF-539): 14.7 µM
Percent Growth (HT29; Log10 Concentration −4.0): −29%
Percent Growth (HT29; Log10 Concentration −5.0): 91%
Percent Growth (HT29; Log10 Concentration −6.0): 98%
Percent Growth (HT29; Log10 Concentration −7.0): 99%
Percent Growth (HT29; Log10 Concentration −8.0): 98%
GI50 (HT29): 21.8 µM
CC50 (HT29): > 100 µM
IC (TGI) (HT29): 57.2 µM
GI50 (U251): 20.3 µM
CC50 (U251): > 100 µM
IC (TGI) (U251): 45.2 µM
GI50 (NCI-H460): 20.7 µM
CC50 (NCI-H460): > 100 µM
IC (TGI) (NCI-H460): 52.1 µM
GI50 (A498): 13.3 µM
CC50 (A498): 56.6 µM
IC (TGI) (A498): 27.4 µM
GI50 (MDA-MB-231/ATCC): 5.86 µM
CC50 (MDA-MB-231/ATCC): 56.9 µM
IC (TGI) (MDA-MB-231/ATCC): 21.3 µM
GI50 (HCT-116): 2660 nM
CC50 (HCT-116): 33.6 µM
IC (TGI) (HCT-116): 11.3 µM

C=C1C(=O)O[C@H]2[C@H]1CC/C(COC(=O)OC)=C\CC[C@@]1(C)O[C@@H]21 [JVM 2-40]
GI50 (PC-3): 12 µM
CC50 (PC-3): 59.4 µM
IC (TGI) (PC-3): 26.7 µM
GI50 (DU-145): 3.35 µM
CC50 (DU-145): 37.7 µM
IC (TGI) (DU-145): 14 µM
GI50 (SN12C): 6.31 µM
CC50 (SN12C): 64.4 µM
IC (TGI) (SN12C): 22.6 µM
GI50 (SK-MEL-2): 10.6 µM
CC50 (SK-MEL-2): 59.5 µM
IC (TGI) (SK-MEL-2): 25.1 µM
GI50 (NCI-H322M): 20.9 µM
CC50 (NCI-H322M): > 100 µM
IC (TGI) (NCI-H322M): 81.5 µM
GI50 (NCI/ADR-RES): 17.2 µM
CC50 (NCI/ADR-RES): > 100 µM
IC (TGI) (NCI/ADR-RES): 49.2 µM
GI50 (MDA-MB-435): 3.63 µM
CC50 (MDA-MB-435): 55.4 µM
IC (TGI) (MDA-MB-435): 16.8 µM
GI50 (HOP-62): 14.9 µM
CC50 (HOP-62): 62.2 µM
IC (TGI) (HOP-62): 30.4 µM
GI50 (786-0): 3290 nM
CC50 (786-0): 48.5 µM
IC (TGI) (786-0): 14.4 µM
GI50 (OVCAR-5): 5.31 µM
CC50 (OVCAR-5): 47 µM
IC (TGI) (OVCAR-5): 19.5 µM
GI50 (SF-539): 2560 nM
CC50 (SF-539): 32.7 µM
IC (TGI) (SF-539): 8.79 µM
Percent Growth (HT29; Log10 Concentration −4.0): −76%
Percent Growth (HT29; Log10 Concentration −5.0): 83%
Percent Growth (HT29; Log10 Concentration −6.0): 99%
Percent Growth (HT29; Log10 Concentration −7.0): 96%
Percent Growth (HT29; Log10 Concentration −8.0): 96%
GI50 (HT29): 16.1 µM
CC50 (HT29): 68.6 µM
IC (TGI) (HT29): 33.2 µM
GI50 (U251): 16.4 µM
CC50 (U251): 55.5 µM
IC (TGI) (U251): 30.2 µM
GI50 (NCI-H460): 16.7 µM
CC50 (NCI-H460): 89.7 µM
GI50 (A498): 10.9 µM
CC50 (A498): 49 µM
IC (TGI) (A498): 23.1 µM
GI50 (MDA-MB-231/ATCC): 3.54 µM
CC50 (MDA-MB-231/ATCC): 46.7 µM
IC (TGI) (MDA-MB-231/ATCC): 16.6 µM
GI50 (HCT-116): 2240 nM
CC50 (HCT-116): 33.2 µM
IC (TGI) (HCT-116): 11 µM

Reference: patent publication US9469650B2, “Melampomagnolide B derivatives” (BOARD OF TRUSTEES OF THE UNIVERSITY OF ARKANSAS, priority 2013, dated 2016)
